Test results published in patent EP4786483A1, “AURISTATIN DERIVATIVE AND ANTIBODY-DRUG CONJUGATE THEREOF” (priority 2023, dated 2025).
Like-named read-outs stand apart in the source and are kept apart here. Non-standard residues stand in square brackets, D forms with d. Residues, ends and D or L forms follow the SMILES beside them. *: point of attachment. Dolaproine = CO[C@@H]([C@@H]1CCCN1)[C@@H](C)C(=O)O; Dil = CC[C@H](C)[C@H](NC)[C@@H](CC(=O)O)OC; Phe(3-NH2) = Nc1cccc(C[C@H](N)C(=O)O)c1; NMe2Val = CC(C)[C@@H](C(=O)*)N(C)C

How the values were obtained:
Assay in all cases: Cytotoxicity test for compounds (CellTiter-Glo cell proliferation inhibition)
Type in all cases: cell-based
[1] = system: human breast cancer cells KPL-4; settings: 3 days of incubation, CellTiter-Glo, read-out: KPL-4/IC50
Method: (§1) Biological Test Example 1: Cytotoxicity Test for Compounds
(§2) • 96-well clear flat-bottom white plate (Corning, #3610) • RPMI1640 culture medium (Gibco, #A10491-01) • Fetal Bovine Serum (Sigma-Aldrich, #F8687-500ML) • CellTiter-Glo® Luminescent Cell Viability Assay (Promega, # G7572/G7571)
(§3) Human gastric cancer cells NCI-N87 (ATCC, Cat. No.: CRL-5822), human breast cancer cells MDA-MB-468 (Cell Bank of the Committee for Type Culture Collection of the Chinese Academy of Sciences, Cat. No.: TCHu136), and human breast cancer cells KPL-4 (Nanjing Cobioer Biosciences Co., Ltd., Cat. No.: CBP60379) were washed with PBS and digested with 0.25% Trypsin-EDTA trypsin for about 3-10 min. The digestion was terminated with a complete cell culture medium. The cells were centrifuged at 1000 rpm for 5 min, and the supernatant was discarded. The cells were resuspended in a complete cell culture medium. The cell number was counted using a cell counter, and the cells were adjusted to the desired density. 90.0 µL of the cell suspension was added to each well at 3000 cells/well. The cell plate was incubated in a cell incubator at 37°C with 5% CO2 overnight.
(§4) In the experiment, a DMSO control group and test sample groups were set. The cell plate was removed from the incubator to observe cell adherence. After the cells adhered, 10.00 µL of the sample (starting from a final concentration of 10 µM, 5-fold dilution, 9 concentrations) was added to each well. After the mixture was gently shaken uniformly, the plate was incubated in the incubator.
(§5) After 3 days of incubation, 100.0 µL/well of CellTiter-Glo™ (Promega, Cat. No.: G7572/G7571) working solution was added. The plate was shaken on a thermostatic shaker to lyse the cells. After 10 min, the plate was read on a microplate reader.
(§6) Data analysis: GraphPad Prism 8.0 software was used to plot a graph with the Log value of the sample concentration as the abscissa and the Inhibition% as the ordinate. The data were analyzed by Nonlinear regression (curve fit) to obtain the IC50 value of each test sample. Table 1. Inhibition activity of compounds of the present disclosure on cell proliferation

[2] = system: Human gastric cancer cells NCI-N87; settings: 3 days of incubation, CellTiter-Glo, read-out: NCI-87/IC50
Method: as §1, §2, §3, §4, §5, §6

[3] = system: human breast cancer cells MDA-MB-468; settings: 3 days of incubation, CellTiter-Glo, read-out: MDA-MD-468/IC50
Method: as §1, §2, §3, §4, §5, §6

Compound: C#CC(Cc1cccc(N)c1)OC(=O)[C@H](C)[C@@H](OC)[C@@H]1CCCN1C(=O)C[C@@H](OC)[C@H]([C@@H](C)CC)N(C)C(=O)[C@@H](NC(=O)[C@H](C(C)C)N(C)C)C(C)C (single isomer, unassigned) [Example 21]
- IC50 ([1]; Homo sapiens, KPL4, 72 h): < 0.0256 nM
- IC50 ([2]; Homo sapiens, NCI-N87, 72 h): < 0.0256 nM
- IC50 ([3]; Homo sapiens, MDA-MB-468, 72 h): < 0.0256 nM

Compound: CC[C@H](C)[C@@H]([C@@H](CC(=O)N1CCC[C@H]1[C@H](OC)[C@@H](C)C(=O)OC(/C=C/C(=O)OC)Cc1cccc(N)c1)OC)N(C)C(=O)[C@@H](NC(=O)[C@H](C(C)C)N(C)C)C(C)C (single isomer, unassigned) [Example 28]
- IC50 ([1]; Homo sapiens, KPL4, 72 h): < 0.0256 nM
- IC50 ([2]; Homo sapiens, NCI-N87, 72 h): 3.33 nM
- IC50 ([3]; Homo sapiens, MDA-MB-468, 72 h): 3.25 nM

Compound: CC[C@H](C)[C@@H]([C@@H](CC(=O)N1CCC[C@H]1[C@H](OC)[C@@H](C)C(=O)OC(/C=C/C(=O)OC)Cc1cccc(N)c1)OC)N(C)C(=O)[C@@H](NC(=O)[C@H](C(C)C)N(C)C)C(C)C (single isomer, unassigned) [Example 29]
- IC50 [1]: < 0.0256 nM
- IC50 [2]: 3.73 nM
- IC50 [3]: 3.17 nM

Compound: CC[C@H](C)[C@@H]([C@@H](CC(=O)N1CCC[C@H]1[C@H](OC)[C@@H](C)C(=O)N1CCS[C@H](c2cccc(N)c2)C1)OC)N(C)C(=O)[C@@H](NC(=O)[C@H](C(C)C)N(C)C)C(C)C (single isomer, unassigned) [Example 60-P1]
- IC50 ([1]; Homo sapiens, KPL4, 72 h): 5.81 nM
- IC50 ([2]; Homo sapiens, NCI-N87, 72 h): 9.63 nM
- IC50 ([3]; Homo sapiens, MDA-MB-468, 72 h): 8.02 nM

Compound: CC[C@H](C)[C@@H]([C@@H](CC(=O)N1CCC[C@H]1[C@H](OC)[C@@H](C)C(=O)N1CCSC(c2cccc(N)c2)C1)OC)N(C)C(=O)[C@@H](NC(=O)[C@H](C(C)C)N(C)C)C(C)C (single isomer, unassigned) [Example 60-P2]
- IC50 ([1]; Homo sapiens, KPL4, 72 h): 0.6 nM
- IC50 ([2]; Homo sapiens, NCI-N87, 72 h): 0.71 nM
- IC50 ([3]; Homo sapiens, MDA-MB-468, 72 h): 1.01 nM

Compound: CC[C@H](C)[C@@H]([C@@H](CC(=O)N1CCC[C@H]1[C@H](OC)[C@@H](C)C(=O)N1CCS(=O)(=O)[C@H](c2cccc(N)c2)C1)OC)N(C)C(=O)[C@@H](NC(=O)[C@H](C(C)C)N(C)C)C(C)C (single isomer, unassigned) [Example 61-P1]
- IC50 ([1]; Homo sapiens, KPL4, 72 h): 49.5 nM
- IC50 ([2]; Homo sapiens, NCI-N87, 72 h): 93.9 nM
- IC50 ([3]; Homo sapiens, MDA-MB-468, 72 h): 34.6 nM

Compound: CC[C@H](C)[C@@H]([C@@H](CC(=O)N1CCC[C@H]1[C@H](OC)[C@@H](C)C(=O)N1CCS(=O)(=O)[C@@H](c2cccc(N)c2)C1)OC)N(C)C(=O)[C@@H](NC(=O)[C@H](C(C)C)N(C)C)C(C)C (single isomer, unassigned) [Example 61-P2]
- IC50 ([1]; Homo sapiens, KPL4, 72 h): 24.3 nM
- IC50 ([2]; Homo sapiens, NCI-N87, 72 h): 56.3 nM
- IC50 ([3]; Homo sapiens, MDA-MB-468, 72 h): 13.3 nM

Compound: CC[C@H](C)[C@@H]([C@@H](CC(=O)N1CCC[C@H]1[C@H](OC)[C@@H](C)C(=O)N[C@H](CCl)Cc1cccc(N)c1)OC)N(C)C(=O)[C@@H](NC(=O)[C@H](C(C)C)N(C)C)C(C)C [Example 1, (S)-N-((3R,4S,5S)-1-((S)-2-((1R,2R)-3-(((S)-1-(3-aminophenyl)-3-chloropropan-2-yl)amino)-1-methoxy-2-methyl-3-oxopropyl)pyrrolidin-1-yl)-3-methoxy-5-methyl-1-oxoheptan-4-yl)-2-((S)-2-(dimethylamino)-3-methylbutanamido)-N,3-dimethylbutanamide]
- IC50 ([1]; Homo sapiens, KPL4, 72 h): 0.41 nM
- IC50 ([2]; Homo sapiens, NCI-N87, 72 h): 0.74 nM
- IC50 ([3]; Homo sapiens, MDA-MB-468, 72 h): 0.63 nM

Compound: C#C[C@H](Cc1cccc(N)c1)NC(=O)[C@H](C)[C@@H](OC)[C@@H]1CCCN1C(=O)C[C@@H](OC)[C@H]([C@@H](C)CC)N(C)C(=O)[C@@H](NC(=O)[C@H](C(C)C)N(C)C)C(C)C [Example 2, (S)-N-((3R,4S,5S)-1-((S)-2-((1R,2R)-3-(((S)-1-(3-aminophenyl)-but-3-yn-2-yl)amino)-1-methoxy-2-methyl-3-oxopropyl)pyrrolidin-1-yl)-3-methoxy-5-methyl-1-oxoheptan-4-yl)-2-((S)-2-(dimethylamino)-3-methylbutanamido)-N,3-dimethylbutanamide]
- IC50 ([1]; Homo sapiens, KPL4, 72 h): 0.21 nM
- IC50 ([2]; Homo sapiens, NCI-N87, 72 h): 0.51 nM
- IC50 ([3]; Homo sapiens, MDA-MB-468, 72 h): 0.36 nM

Compound: CC[C@H](C)[C@@H]([C@@H](CC(=O)N1CCC[C@H]1[C@H](OC)[C@@H](C)C(=O)N[C@@H](Cc1cccc(N)c1)C(N)=O)OC)N(C)C(=O)[C@@H](NC(=O)[C@H](C(C)C)N(C)C)C(C)C [Example 3, (S)-N-((3R,4S,5S)-1-((S)-2-((1R,2R)-3-(((S)-1-amino-3-(3-aminophenyl)-1-oxopropan-2-yl)amino)-1-methoxy-2-methyl-3-oxopropyl)pyrrolidin-1-yl)-3-methoxy-5-methyl-1-oxoheptan-4-yl)-2-((S)-2-(dimethylamino)-3-methylbutanamido)-N,3-dimethylbutanamide] (NMe2Val-V[Dil][Dolaproine][Phe(3-NH2)]-NH2)
- IC50 ([1]; Homo sapiens, KPL4, 72 h): 18.9 nM
- IC50 ([2]; Homo sapiens, NCI-N87, 72 h): 38.4 nM
- IC50 ([3]; Homo sapiens, MDA-MB-468, 72 h): 25.1 nM

Compound: CC[C@H](C)[C@@H]([C@@H](CC(=O)N1CCC[C@H]1[C@H](OC)[C@@H](C)C(=O)N[C@@H](Cc1cccc(N)c1)C(=O)NC)OC)N(C)C(=O)[C@@H](NC(=O)[C@H](C(C)C)N(C)C)C(C)C [Example 4, (S)-N-((3R,4S,5S)-1-((S)-2-((1R,2R)-3-(((S)-3-(3-aminophenyl)-1-(methylamino)-1-oxopropan-2-yl)amino)-1-methoxy-2-methyl-3-oxopropyl)pyrrolidin-1-yl)-3-methoxy-5-methyl-1-oxoheptan-4-yl)-2-((S)-2-(dimethylamino)-3-methylbutanamido)-N,3-dimethylbutanamide] (NMe2Val-V[Dil][Dolaproine][Phe(3-NH2)]-NHMe)
- IC50 ([1]; Homo sapiens, KPL4, 72 h): 5.26 nM
- IC50 ([2]; Homo sapiens, NCI-N87, 72 h): 14.7 nM
- IC50 ([3]; Homo sapiens, MDA-MB-468, 72 h): 6.12 nM

Compound: C=CCN(CCc1cccc(N)c1)C(=O)[C@H](C)[C@@H](OC)[C@@H]1CCCN1C(=O)C[C@@H](OC)[C@H]([C@@H](C)CC)N(C)C(=O)[C@@H](NC(=O)[C@H](C(C)C)N(C)C)C(C)C [Example 5, (S)-N-((3R,4S,5S)-1-((S)-2-((1R,2R)-3-(allyl(3-aminophenethyl)amino)-1-methoxy-2-methyl-3-oxopropyl)pyrrolidin-1-yl)-3-methoxy-5-methyl-1-oxoheptan-4-yl)-2-((S)-2-(dimethylamino)-3-methylbutanamido)-N,3-dimethylbutanamide]
- IC50 ([1]; Homo sapiens, KPL4, 72 h): 3.56 nM
- IC50 ([2]; Homo sapiens, NCI-N87, 72 h): 4.28 nM
- IC50 ([3]; Homo sapiens, MDA-MB-468, 72 h): 8.81 nM

Compound: CC[C@H](C)[C@@H]([C@@H](CC(=O)N1CCC[C@H]1[C@H](OC)[C@@H](C)C(=O)N(O)CCc1cccc(N)c1)OC)N(C)C(=O)[C@@H](NC(=O)[C@H](C(C)C)N(C)C)C(C)C [Example 8, (S)-N-((3R,4S,SS)-1-((S)-2-((1R,2R)-3-((3-aminophenethyl)(hydroxy)amino)-1-methoxy-2-methyl-3-oxopropyl)pyrrolidin-1-yl)-3-methoxy-5-methyl-1-oxoheptan-4-yl)-2-((S)-2-(dimethylamino)-3-methylbutanamido)-N,3-dimethylbutanamide]
- IC50 ([1]; Homo sapiens, KPL4, 72 h): 0.14 nM
- IC50 ([2]; Homo sapiens, NCI-N87, 72 h): 0.66 nM
- IC50 ([3]; Homo sapiens, MDA-MB-468, 72 h): 0.56 nM

Compound: CC[C@H](C)[C@@H]([C@@H](CC(=O)N1CCC[C@H]1[C@H](OC)[C@@H](C)C(=O)N1CCO[C@H](c2cccc(N)c2)C1)OC)N(C)C(=O)[C@@H](NC(=O)[C@H](C(C)C)N(C)C)C(C)C [Example 48, (S)-N-((3R,4S,55)-1-((S)-2-((1R,2R)-3-((R)-2-(3-aminophenyl)morpholino)-1-methoxy-2-methyl-3-oxopropyl)pyrrolidin-1-yl)-3-methoxy-5-methyl-1-oxoheptan-4-yl)-2-((S)-2-(dimethylamino)-3-methylbutanamido)-N,3-dimethylbutanamide]
- IC50 [1]: 2.06 nM
- IC50 [2]: 4.73 nM

Compound: CC[C@H](C)[C@@H]([C@@H](CC(=O)N1CCC[C@H]1[C@H](OC)[C@@H](C)C(=O)N1CCO[C@@H](c2cccc(N)c2)C1)OC)N(C)C(=O)[C@@H](NC(=O)[C@H](C(C)C)N(C)C)C(C)C [Example 51, (S)-N-((3R,4S,SS)-1-((S)-2-((1R,2R)-3-((S)-2-(3-aminophenyl)morpholino)-1-methoxy-2-methyl-3-oxopropyl)pyrrolidin-1-yl)-3-methoxy-5-methyl-1-oxoheptan-4-yl)-2-((S)-2-(dimethylamino)-3-methylbutanamido)-N,3-dimethylbutanamide]
- IC50 [1]: 6.03 nM
- IC50 [2]: 16.1 nM
